Reference: US20130095059A1, “INHALED NO DONOR KMUPS DERIVATIVE PREVENTING ALLERGIC PULMONARY VASCULAR AND BRONCHIAL INFLAMMATION VIA SUPPRESSED CYTOKINES, INOS AND INFLAMMATORY CELL COUNTS IN ASTHMA MODEL” (priority 2007, published 2013)

Assays:
5-HT2B receptor = target: T1, 5-HT2B receptor (Homo sapiens, UniProt P41595); assay: Displacement of radioligand binding, 5-HT2B
T1 construct: full length clones of 5-HT2A, 5-HT2B and 5-HT2C receptor were prepared from CHO-K1 cells; expressed in transfected cells; host or cells: CHO-K1
T1 sequence (P41595 whole entry): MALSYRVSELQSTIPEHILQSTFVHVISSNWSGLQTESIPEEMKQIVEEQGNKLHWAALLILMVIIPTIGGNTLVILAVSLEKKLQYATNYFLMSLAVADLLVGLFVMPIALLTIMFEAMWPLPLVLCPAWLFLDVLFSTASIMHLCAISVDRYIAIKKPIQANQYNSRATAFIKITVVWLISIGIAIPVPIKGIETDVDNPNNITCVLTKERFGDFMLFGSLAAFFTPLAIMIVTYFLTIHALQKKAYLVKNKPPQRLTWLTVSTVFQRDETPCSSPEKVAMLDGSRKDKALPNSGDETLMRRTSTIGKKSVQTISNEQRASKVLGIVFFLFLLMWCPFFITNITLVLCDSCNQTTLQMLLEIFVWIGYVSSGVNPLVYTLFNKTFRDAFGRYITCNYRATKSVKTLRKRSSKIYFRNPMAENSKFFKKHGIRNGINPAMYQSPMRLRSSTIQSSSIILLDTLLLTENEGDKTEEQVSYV
Protocol: (§1) Displacement of Radioligand Binding Assay
(§2) As described previously, full length clones of 5-HT2A, 5-HT2B and 5-HT2C receptor were prepared from CHO-K1 cells. […] IC50 represents the concentration of competing ligand which displaces 50% of the specific binding of the radioligand. Ki values for competition curves were calculated using the Cheng-Prusoff equation (Cheng, 2001).

5-HT2C receptor = target: T2, 5-HT2C receptor (Homo sapiens, UniProt P28335); assay: Displacement of radioligand binding, 5-HT2C; settings: [^3H]-mesulergine, human recombinant CHO-K1 cells
T2 construct: full length clones of 5-HT2A, 5-HT2B and 5-HT2C receptor were prepared from CHO-K1 cells; expressed in transfected cells; host or cells: CHO-K1
T2 sequence (P28335 33-458): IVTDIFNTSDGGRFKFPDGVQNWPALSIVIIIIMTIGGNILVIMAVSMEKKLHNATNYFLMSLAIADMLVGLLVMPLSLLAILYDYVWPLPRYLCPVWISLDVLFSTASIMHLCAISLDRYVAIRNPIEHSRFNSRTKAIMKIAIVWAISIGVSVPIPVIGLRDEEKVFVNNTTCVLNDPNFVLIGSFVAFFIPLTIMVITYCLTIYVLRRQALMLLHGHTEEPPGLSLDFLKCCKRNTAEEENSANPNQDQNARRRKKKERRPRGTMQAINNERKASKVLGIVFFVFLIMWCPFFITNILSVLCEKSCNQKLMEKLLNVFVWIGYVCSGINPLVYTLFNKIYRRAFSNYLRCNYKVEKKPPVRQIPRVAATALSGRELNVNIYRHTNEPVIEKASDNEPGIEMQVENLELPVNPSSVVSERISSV
Protocol: as §1, §2

5-HT = assay: Plasma 5-HT levels in MCT-treated rats (Serotonin EIA); assay type: in vivo, Wistar rats; settings: MCT-PAH rats, non-treated MCT-PAH 4.2±0.7
Protocol: The experiments were performed in adult male Wistar rats (300 to 350 g) in accordance with institutional guidelines after approval by the ethical review committee. PAH development and pulmonary expression of 5-HTT were examined in rats after 60 mg/kg single injection (i.p.) of monocrotaline (MCT). To assess the potential preventive effect of KMUP-1 on MCT-induced PAH and associated proliferation, we assigned rats at random to 2 groups of 8 animals which received KMUP-1 at 5 mg/kg/day p.o or 1 mg/kg/day i.p. All treatments were given once a day for 3 weeks after a single MCT injection (60 mg/kg i.p.) (Abe et al., 2004). On day 21, rats were anesthetized and pulmonary artery blood pressure (MPAP) was recorded as previously described. Lung tissues were dissected for Western blotting and immunohistochemistry.
After MCT-treatment, rats acquired severe PAH and received sodium pentobarbital (40 mg/kg, i.p.) at day 21 for surgical anesthesia and measurement of MPAP (Chung et al., 2010). Blood samples (1.0 mL) were obtained from the heart. Blood was transferred to plastic tubes that included EDTA and was centrifuged at 100 g for 20 min. The plasma was transferred to tubes and stored at −80° C. until analysis. Plasma 5-HT levels were determined using commercially available Serotonin EIA (IBL, Minneapolis, USA). […] Results were read from a standard curve. […]

PASMCs = PASMCs [Ca2+]i measurement (Fura-2/AM); assay type: cell-based, Wistar rats
Protocol: Wistar rats were anesthetized with an overdose of sodium pentobarbital (60 mg/kg) and the skin was sterilized with 75% alcohol. The chest was opened and the heart and lung were removed. The organs were rinsed several times in PBS. The pulmonary artery were segregated in a sterile manner. The outer sphere was peeled and the microtubule was snipped visually, and endothecia were shaved lightly 2-3 times in order to remove endothelial cells. The tunica media was prepared into scraps (1 mm^3) in DMEM (Dulbecco's modified Eagle's medium). PASMCs were cultured in DMEM containing 10% fetal bovine serum (5% CO2 at 37° C.). The culture medium was changed every 3 days and cells were subcultured until confluence. Primary cultures of 2-4 passages were used in the experiments. Cells were examined by immunofluorescence staining of α-actin to confirm the purity of PASMCs.
The measurement of [Ca^2+]i in PASMCs was performed using a spectrofluorophotometer as previously reported. PASMCs, cultured for 2-4 passages and re-suspended by trypsin, were loaded with Fura-2/AM for the measurement of [Ca^2+]i changes in cells within the cuvette by spectrofluorophotometer (Shimadzu, RF-5301PC, Shimadzu, Japan). KMUP-1 was applied 5 min before application of 5-HT (10 μM).

NO = assay: Nitric oxide production in HPAEC (Griess); assay type: cell-based, human; settings: 10 μM, 24 h before adding 5-HT
Protocol: Production of NO in HPAEC was determined using the Griess method. The three step Greiss test converts nitrate (NO3^−) into nitrite (NO2^−) giving a total NO2^− concentration from a standard calibration curve. HPAEC were incubated with or without KMUP-1 (10 μM) for 24 h and then incubated with 5-HT (10 μmol/L) for 30 min. Media samples from HPAEC were taken and the NO concentration was determined. Six independent experiments were carried out and data are reported as the mean mean±SEM.

eNOS = assay: Short term nebulization, eNOS expression in lung tissues; assay type: in vivo, BALB/c mice; settings: nebulization 1.0˜2.5 mM, 30 mins, without ovalbumine sensitization
Protocol: […] Aerosols were generated by ultrasonic nebulizer from day 21 to 27. Mice were sacrificed on day 28, (Cataldo D D, et al., 2002). Three different experiments were performed on cohorts of 7˜14 mice per experimental condition.
(§3) The lung tissues were homogenized, washed with PBS and incubated in lysis buffer in addition to a protease inhibitor cocktail (Sigma, St. Louis, Mo.) to obtain extracts of lung proteins. A Western blot analysis was performed as described previously (Wu B N, et al., 2006). The samples were loaded to 10% SDS-PAGE gels and were separated at 120 V for 90 min. The blots were incubated with anti-eNOS antibody diluted at a ratio of 1:500, anti-sGCα1 antibody diluted at a ratio of 1:2000, anti-PKG antibody diluted at a ratio of 1:500, anti-VCAM-1 antibody diluted at a ratio of 1:500, anti-ICAM-1 antibody diluted at a ratio of 1:500, and anti-MMP-9 antibody diluted at a ratio of 1:600 overnight at 4° C. The membranes were stripped and re-blotted with anti-actin antibody (Sigma, St. Louis, Mo.) to verify the equal loading of protein in each lane.

MMP-9 = assay: Short term nebulization, MMP-9 expression in lung tissues; assay type: in vivo, BALB/c mice; settings: nebulization 1.0˜2.5 mM, 30 mins, without ovalbumine sensitization
Protocol: […] […] […] Three different experiments were performed on cohorts of 7˜14 mice per experimental condition.
as §3

Cn1c(=O)c2c(ncn2CCN2CCN(c3ccccc3Cl)CC2)n(C)c1=O [KMUP-1, 7-[2-[4-(2-chlorophenyl)piperazinyl]ethyl]-1,3-dimethylxanthine]
ligand specificity of 5-HT2B receptor versus 5-HT2A and 5-HT2C receptors (5-HT2B receptor): more selective | IC50 (5-HT2B receptor; [^3H]-LSD, human recombinant CHO-K1 cells): 40 nM | Ki (5-HT2B receptor; [^3H]-LSD, human recombinant CHO-K1 cells, Cheng-Prusoff): 25.4 nM | IC50 (5-HT2C receptor): 408 nM | Ki (5-HT2C receptor; Cheng-Prusoff): 214 nM | plasma concentration of 5-HT (5-HT; 1 mg/kg i.p.): 3.2 ± 0.6 ng/mL | plasma concentration of 5-HT (5-HT; 5 mg/kg p.o.): 3.2 ± 0.5 ng/mL | inhibition of sustained [Ca^2+]i response to 5-HT (PASMCs; 10 μM): 65% | 5-HT-induced elevation of [Ca^2+]i (PASMCs; 0.1-100 μM, 5-HT 10 μM): concentration-dependently inhibited | release of NO compared to 5-HT treatment alone (NO): raised | eNOS expression in mice lung tissues (eNOS): dose-dependently increased | MMP-9 expression in mice lung tissues (MMP-9): decreased
